We go through six compounds from article PMC7697191, “Identification of Novel Influenza Polymerase PB2 Inhibitors Using a Cascade Docking Virtual Screening Approach” (Molecules, 2020).

One may read the EC50 as the midpoint of the concentration-response curve.

Assay [1] has as its system PR/8-R292K mutant (H1N1, recombinant oseltamivir-resistant). Format: cell-based, influenza A virus (H1N1).
Assay [2] deals with PR/8-I38T mutant (H1N1, recombinant baloxavir-resistant). It counts as cell-based, influenza A virus (H1N1).

A value given as a limit tells only on which side of the number the result lay.

For the compound `CCC(CC)O[C@@H]1C=C(C(=O)O)C[C@H](N)[C@H]1NC(C)=O` [OC, Oseltamivir carboxylate, reference compound], in assay [1], the EC50 was more than 100 µM.
Regarding `C=CCn1cc(-c2cc(-c3ccc(C(=O)O)cc3)[nH]c(=N)c2C#N)cn1` [12C5], the 50% effective concentration (EC50) in assay [1] is 28.6 ± 0.99 µM; in assay [2], 35.4 ± 1.02 µM.
Take `CCSc1ncc(-c2cc(-c3c(C)nn(C)c3C)nc(N)c2C#N)cn1` [21A5]: the EC50 in assay [1] was found to be 9.27 ± 0.55 µM; in assay [2], 14.1 ± 0.47 µM.
For `O=C(O)[C@H]1C2CCC(CC2)[C@@H]1Nc1nc(-c2c[nH]c3ncc(F)cc23)ncc1F` [VX-787, reference compound] the same measures were 4.14 ± 0.66 µM and 2.34 ± 0.1 µM.
For `C=CCn1cc(CNCc2noc(-c3ccc4c(c3)OCO4)n2)c(C)n1` [11D4] the same measures were 21.5 ± 5.49 µM and 32.4 ± 1.52 µM.
Taken in the same sequence, the figures for `Cc1cccnc1CCNc1nc2nonc2nc1NCc1cccs1` [21B1] were 14.6 ± 1.44 µM and 37 ± 0.67 µM.
